# Assay results from patent US20220214361A1, “Method for Screening Candidate Drug for Treating Degenerative Brain Diseases” (THE INDUSTRY & ACADEMIC COOPERATION IN CHUNGNAM NATIONAL …, priority 2019, published 2022).
# Entries after “also recorded” stand apart in the source; their conditions may differ.
# What was measured:
# [1] = system: FAF1 protein secretion in SH-SY5Y cells overexpressing FAF1; assay: Secretion of FAF1 protein into culture medium after Brefeldin A treatment (ER-Golgi pathway), Western blotting; format: cell-based, human; details: 10 μM, 24 hours, serum-free DMEM, SH-SY5Y cells transfected with 3x Flag tag-FAF1 vector, FIG. 2b
# Protocol: (§1) Particularly, SH-SY5Y cells were aliquoted into 60 mm culture dishes at the density of 5×10^5 cells/dish, and subcultured in DMEM (Dulbecco/s Modified Eagle's Medium) supplemented with antibiotics and 10% FBS (fetal bovine serum) under the conditions of 37° C. and 5% CO2 for 24 hours. The cultured SH-SY5Y cells were transfected with 2 μg of 3x Flag tag-FAF1 expression vector to overexpress FAF1 protein, cultured for 24 hours, and then washed with PPS buffer. Thereafter, the medium was replaced with serum-free DMEM (Dulbecco/s Modified Eagle's Medium), and the cells were treated with 10 μM Brefeldin A (BFA), a compound that inhibits protein secretion through the ER-Golgi pathway, and further cultured in an incubator for 24 hours. The medium was transferred to a 15 ml tube and centrifuged at 1500 rpm for 2 minutes to obtain a supernatant. The obtained supernatant was placed in Amicon Ultra-4 Centrifugal Filter, and centrifuged again at 4000×g, 4° C. for 15 minutes. The protein filtered by the filter was analyzed by Western blotting.
# [2] = system: FAF1 protein secretion in SH-SY5Y cells overexpressing FAF1; assay: Secretion of FAF1 protein into culture medium after treatment with compounds that increase or decrease exosome secretion, Western blotting; format: cell-based, human; details: 10 μM, 24 hours, serum-free DMEM, SH-SY5Y cells transfected with 3x Flag tag-FAF1 vector, FIG. 3
# Protocol: as §1, with “PBS” for “PPS”, “Monensin” for “Brefeldin A (BFA), a”, “to increase exosome” for “that inhibits protein”, “and 10 μM GW4869 compound to decrease exosome secretion,” for “through the ER-Golgi pathway,”, “cultured” for “cultured in an incubator”
structure (smiles),measurement,setting,value
C[C@H]1CCC/C=C/[C@@H]2C[C@H](O)C[C@H]2[C@H](O)/C=C/C(=O)O1 [Brefeldin A],expression level of FAF1 protein (secreted into culture medium) versus group not treated,[1],constant; also recorded: no difference
O=C(/C=C/c1ccc(/C=C/C(=O)Nc2ccc(C3=NCCN3)cc2)cc1)Nc1ccc(C2=NCCN2)cc1 [GW4869],secretion amount of FAF1 compared to control group,[2],decreased
CC[C@@]1([C@@H]2O[C@@H]([C@H]3O[C@@](O)(CO)[C@H](C)C[C@@H]3C)C[C@@H]2C)CC[C@H]([C@]2(C)CC[C@]3(C[C@H](O)[C@@H](C)[C@@H]([C@@H](C)[C@@H](OC)[C@H](C)C(=O)O)O3)O2)O1 [Monensin],secretion amount of FAF1 compared to control group,[2],significantly increased
